Laboratory results reported in ChEMBL document CHEMBL3603789, “N-Lipidated Peptide Dimers: Effective Antibacterial Agents against Gram-Negative Pathogens through Lipopolysaccharide Permeabilization” (J Med Chem, 2015).
In brackets after ≈: the same amount, converted by molar mass. Activity calls are given as the source filed them. The rule behind the calls is not given here. Bridge positions count the residues as written; N and C are the ends. Peptide text beside a SMILES is read from it. I, II: the chains in the order shown. * marks the point of attachment. Octanoyl = CCCCCCCC(=O)*

Tests used:
Pseudomonas aeruginosa [1] = test: Antibacterial activity against Pseudomonas aeruginosa DR4877 after 24 hrs by broth microdilution method; format: functional; conditions: DR4877, 24 h
Escherichia coli [2] = test: Antibacterial activity against Escherichia coli ATCC 25922 after 24 hrs by checkerboard assay in presence of erythromycin; format: functional
Pseudomonas aeruginosa [3] = test: Antibacterial activity against Pseudomonas aeruginosa DM23155 after 24 hrs by checkerboard assay in presence of nalidixic acid; format: functional
[4] = Toxicity in New Zealand white rabbit erythrocytes assessed as hemolytic activity after 60 mins; format: cell-based, Oryctolagus cuniculus; conditions: erythrocyte, 1 h
[5] = Induction of calcein leakage from DOPC artificial membrane at 1:32 ratio of compound to lipid by fluorescence assay; format: physicochemical
Pseudomonas aeruginosa [6] = test: Antibacterial activity against Pseudomonas aeruginosa DM23155 after 24 hrs by checkerboard assay in presence of kanamycin; format: functional
Klebsiella pneumoniae [7] = test: Antibacterial activity against Klebsiella pneumoniae DU31158 after 24 hrs by broth microdilution method; format: functional; conditions: DU31158, 24 h
Pseudomonas aeruginosa [8] = test: Antibacterial activity against Pseudomonas aeruginosa DM4150R after 24 hrs by broth microdilution method; format: functional
[9] = Toxicity in human corneal fibroblasts assessed as cell viability at > 2000 uM after 4 hrs by ATP luminescent assay; format: cell-based; conditions: fibroblast
Pseudomonas aeruginosa [10] = test: Antibacterial activity against Pseudomonas aeruginosa DU14476 after 24 hrs by broth microdilution method; format: functional; conditions: DU14476, 24 h
Pseudomonas aeruginosa [11] = test: Antibacterial activity against Pseudomonas aeruginosa DM23257 after 24 hrs by broth microdilution method; format: functional; conditions: DM23257, 24 h
Pseudomonas aeruginosa [12] = test: Antibacterial activity against Pseudomonas aeruginosa DM23155 assessed as log reduction of viable count at 2 times MIC after 24 hrs by time-kill assay; format: functional, organism-based
[13] = Induction of calcein leakage from DOPE/DOPG artificial membrane at 1:32 ratio of compound to lipid by fluorescence assay; format: physicochemical
Klebsiella pneumoniae [14] = test: Antibacterial activity against Klebsiella pneumoniae DB55301 after 24 hrs by broth microdilution method; format: functional; conditions: DB55301, 24 h
Pseudomonas aeruginosa [15] = test: Antibacterial activity against Pseudomonas aeruginosa DR18531 after 24 hrs by broth microdilution method; format: functional; conditions: DR18531, 24 h
Pseudomonas aeruginosa [16] = test: Antibacterial activity against Pseudomonas aeruginosa DM23155 after 24 hrs by broth microdilution method; format: functional; conditions: DM23155, 24 h
Pseudomonas aeruginosa [17] = test: Antibacterial activity against Pseudomonas aeruginosa ATCC 9027 after 24 hrs by broth microdilution method; format: functional; conditions: ATCC 9027, 24 h
Escherichia coli [18] = test: Antibacterial activity against Escherichia coli DS17232 after 24 hrs by broth microdilution method; format: functional; conditions: DS17232, 24 h
Escherichia coli [19] = test: Antibacterial activity against Escherichia coli ATCC 25922 after 24 hrs by checkerboard assay in presence of nalidixic acid; format: functional
Pseudomonas aeruginosa [20] = test: Antibacterial activity against Pseudomonas aeruginosa DM23155 after 24 hrs by checkerboard assay in presence of erythromycin; format: functional
Lipopolysaccharide (LPS) [21] = test: Displacement of dansylcadaverine from Escherichia coli 0111:B4 LPS at 15 to 30 uM after 5 mins by high-throughput fluorescence displacement assay
Escherichia coli [22] = test: Antibacterial activity against Escherichia coli DM17528 after 24 hrs by broth microdilution method; format: functional; conditions: DM17528, 24 h
Mus musculus [23] = test: Corneal toxicity in mouse at 6.25 mg/kg, iv measured 24 hrs after last dose; format: organism-based; conditions: in vivo
Mus musculus [24] = test: Corneal toxicity in mouse at 1 to 3 mg/ml applied topically 5 times per day measured 24 hrs after last dose; format: organism-based; conditions: in vivo, topical_or_ocular
Klebsiella pneumoniae [25] = test: Antibacterial activity against Klebsiella pneumoniae DS07955 after 24 hrs by broth microdilution method; format: functional; conditions: DS07955, 24 h
Pseudomonas aeruginosa [26] = test: Antibacterial activity against Pseudomonas aeruginosa DM23155 assessed as log reduction of viable count MIC up to 24 hrs by time-kill assay; format: functional, organism-based
Escherichia coli [27] = test: Antibacterial activity against Escherichia coli ATCC 25922 after 24 hrs by checkerboard assay in presence of kanamycin; format: functional
Pseudomonas aeruginosa [28] = test: Antibacterial activity against Pseudomonas aeruginosa DR5790 after 24 hrs by broth microdilution method; format: functional; conditions: DR5790, 24 h
Klebsiella pneumoniae [29] = test: Antibacterial activity against Klebsiella pneumoniae DS16260 after 24 hrs by broth microdilution method; format: functional; conditions: DS16260, 24 h
Pseudomonas aeruginosa [30] = test: Antibacterial activity against Pseudomonas aeruginosa DM23155 after 24 hrs by checkerboard assay in presence of gentamicin; format: functional
Pseudomonas aeruginosa [31] = test: Antibacterial activity against Pseudomonas aeruginosa DM23376 after 24 hrs by broth microdilution method; format: functional; conditions: DM23376, 24 h
Klebsiella pneumoniae [32] = test: Antibacterial activity against Klebsiella pneumoniae DM4299 after 24 hrs by broth microdilution method; format: functional; conditions: DM4299, 24 h
Lipopolysaccharide (LPS) [33] = test: Induction of Escherichia coli 0111:B4 LPS neutralization using p-nitroaniline assessed as concentration required to neutralize 50% after 1 hr by limulus amebocyte lysate assay
Escherichia coli [34] = test: Antibacterial activity against Escherichia coli ATCC 25922 after 24 hrs by broth microdilution method; format: functional; conditions: ATCC 25922, 24 h
Pseudomonas aeruginosa [35] = test: Antibacterial activity against Pseudomonas aeruginosa ATCC 27853 after 24 hrs by broth microdilution method; format: functional; conditions: ATCC 27853, 24 h
Pseudomonas aeruginosa [36] = test: Antibacterial activity against Pseudomonas aeruginosa DM23155 after 24 hrs by checkerboard assay in presence of streptomycin; format: functional
[37] = Toxicity in human corneal fibroblasts assessed as cell viability at > 2000 uM after 4 hrs by LDH assay; format: cell-based; conditions: fibroblast
Pseudomonas aeruginosa [38] = test: Induction of cytoplasmic membrane disruption in Pseudomonas aeruginosa DM23155 assessed as membrane integrity at 1 to 2 times MIC after 1 hr by fluorescence assay; format: functional
Pseudomonas aeruginosa [39] = test: Induction of cytoplasmic membrane depolarization in Pseudomonas aeruginosa DM23155 at 4 times MIC after 1 hr by fluorescence assay; format: functional, organism-based
Escherichia coli [40] = test: Antibacterial activity against Escherichia coli ATCC 25922 after 24 hrs by checkerboard assay in presence of gentamicin; format: functional
Mus musculus [41] = test: Corneal toxicity in mouse at 100 mg/kg, ip measured 24 hrs after last dose; format: organism-based; conditions: in vivo
Pseudomonas aeruginosa [42] = test: Antibacterial activity against Pseudomonas aeruginosa DM23155 assessed as log reduction of viable count at 2 times MIC after 30 mins by time-kill assay relative to control; format: functional
Escherichia coli [43] = test: Antibacterial activity against Escherichia coli ATCC 25922 after 24 hrs by checkerboard assay in presence of streptomycin; format: functional

MIC (Pseudomonas aeruginosa [1]): 3 µM (≈ 7.63 µg/mL) | Activity [5]: Active | MIC (Klebsiella pneumoniae [7]): 10 µM (≈ 25.4 µg/mL) | MIC (Pseudomonas aeruginosa [8]): 3 µM (≈ 7.63 µg/mL) | MIC (Pseudomonas aeruginosa [10]): 3 µM (≈ 7.63 µg/mL) | MIC (Pseudomonas aeruginosa [11]): 3 µM (≈ 7.63 µg/mL) | Activity [13]: Active | MIC (Klebsiella pneumoniae [14]): 10 µM (≈ 25.4 µg/mL) | MIC (Pseudomonas aeruginosa [15]): 1.5 µM (≈ 3.81 µg/mL) | MIC (Pseudomonas aeruginosa [16]): 3 µM (≈ 7.63 µg/mL) | MIC (Pseudomonas aeruginosa [17]): 3 µM (≈ 7.63 µg/mL) | MIC (Escherichia coli [18]): 10 µM (≈ 25.4 µg/mL) | Activity (Lipopolysaccharide (LPS) [21]): 121% | MIC (Escherichia coli [22]): 10 µM (≈ 25.4 µg/mL) | MIC (Klebsiella pneumoniae [25]): 10 µM (≈ 25.4 µg/mL) | MIC (Pseudomonas aeruginosa [28]): 3 µM (≈ 7.63 µg/mL) | MIC (Klebsiella pneumoniae [29]): 3 µM (≈ 7.63 µg/mL) | MIC (Pseudomonas aeruginosa [31]): 3 µM (≈ 7.63 µg/mL) | MIC (Klebsiella pneumoniae [32]): 3 µM (≈ 7.63 µg/mL) | EC50 (Lipopolysaccharide (LPS) [33]): 73.4 µM | MIC (Escherichia coli [34]): 6 µM (≈ 15.3 µg/mL) | MIC (Pseudomonas aeruginosa [35]): 3 µM (≈ 7.63 µg/mL)
Compound: CCCCCCCC(=O)N[C@@H](CCCNC(=N)N)C(=O)NCC(=O)N[C@@H](CCCNC(=N)N)C(=O)N[C@@H](CCCCN)C(=O)N[C@H](C(=O)N[C@H](C(=O)N[C@@H](CCCNC(=N)N)C(=O)N[C@@H](CCCNC(=N)N)C(=O)NCCCC[C@H](NC(=O)[C@H](CCCNC(=N)N)NC(=O)[C@H](CCCNC(=N)N)NC(=O)[C@@H](NC(=O)[C@@H](NC(=O)[C@H](CCCCN)NC(=O)[C@H](CCCNC(=N)N)NC(=O)CNC(=O)[C@H](CCCNC(=N)N)NC(=O)CCCCCCC)C(C)C)C(C)C)C(=O)N[C@@H](CCCCN)C(=O)O)C(C)C)C(C)C (I: Octanoyl-RGRKVVRRKK-OH / II: Octanoyl-RGRKVVRR; amide I:9-II:C)
fractional inhibitory concentration index (FICI) (Escherichia coli [2]): 0.56 | fractional inhibitory concentration index (FICI) (Pseudomonas aeruginosa [3]): 0.5 | HC10 [4]: > 10000 µg/mL | fractional inhibitory concentration index (FICI) (Pseudomonas aeruginosa [6]): 0.56 | Activity [9]: > 2000 µM | Activity (Pseudomonas aeruginosa [12]): Active | fractional inhibitory concentration index (FICI) (Escherichia coli [19]): 0.5 | fractional inhibitory concentration index (FICI) (Pseudomonas aeruginosa [20]): 0.56 | Activity (Mus musculus [23]): Non-toxic | Activity (Mus musculus [24]): Non-toxic | Activity (Pseudomonas aeruginosa [26]): Dose-dependent effect | fractional inhibitory concentration index (FICI) (Escherichia coli [27]): 0.31 | fractional inhibitory concentration index (FICI) (Pseudomonas aeruginosa [30]): 0.38 | fractional inhibitory concentration index (FICI) (Pseudomonas aeruginosa [36]): 0.56 | Activity [37]: > 2000 µM | Activity (Pseudomonas aeruginosa [38]): >80% | Activity (Pseudomonas aeruginosa [39]): Active | fractional inhibitory concentration index (FICI) (Escherichia coli [40]): 0.31 | Activity (Mus musculus [41]): Non-toxic | FC (Pseudomonas aeruginosa [42]): 3 | fractional inhibitory concentration index (FICI) (Escherichia coli [43]): 0.31
